Laboratory results published in PubChem BioAssay AID330 (DTP/NCI, 2004).
“And” between values parts separate entries of the source, which are not always exact repeats. Identical values can stand only once. Inconclusive results and toxic doses are left out. The calls were made as follows: active = survival T/C of 150% or more; inactive = T/C below 125% in these data.

System: P388 leukemia ip, CD2F1 mice, survival T/C
Test: NCI In Vivo Anticancer Drug Screen. Data for tumor model P388 Leukemia (intraperitoneal) in CD2F1 (CDF1) mice
Settings: endpoint: median survival time, higher = longer survival
Summary of the method: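 Mice carrying the transplanted tumor received test compound or vehicle. Survival was recorded in each group, and the value is the treated-group measurement divided by that of the vehicle-treated control group.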

[1] = dose: 12.5 mg/kg/injection, schedule: Q01DX009 (ip), vehicle: saline
[2] = dose: 25.0 mg/kg/injection, schedule: Q01DX009 (ip), vehicle: saline
[3] = dose: 50.0 mg/kg/injection, schedule: Q01DX009 (ip), vehicle: saline
[4] = dose: 60.0 mg/kg/injection, schedule: Q01DX005 (ip), vehicle: Klucel (hydroxypropylcellulose) (HPC)
[5] = dose: 120.0 mg/kg/injection, schedule: Q01DX005 (ip), vehicle: Klucel (hydroxypropylcellulose) (HPC)
[6] = dose: 240.0 mg/kg/injection, schedule: Q01DX005 (ip), vehicle: Klucel (hydroxypropylcellulose) (HPC)
[7] = dose: 50.0 mg/kg/injection, schedule: Q01DX009 (ip), vehicle: Klucel (hydroxypropylcellulose) (HPC)
[8] = dose: 100.0 mg/kg/injection, schedule: Q01DX009 (ip), vehicle: Klucel (hydroxypropylcellulose) (HPC)
[9] = dose: 200.0 mg/kg/injection, schedule: Q01DX009 (ip), vehicle: Klucel (hydroxypropylcellulose) (HPC)
[10] = dose: 50.0 mg/kg/injection, schedule: Q01DX005 (ip), vehicle: saline with Tween-80
[11] = dose: 100.0 mg/kg/injection, schedule: Q01DX005 (ip), vehicle: saline with Tween-80
[12] = dose: 200.0 mg/kg/injection, schedule: Q01DX005 (ip), vehicle: saline with Tween-80
[13] = dose: 100.0 mg/kg/injection, schedule: Q04DX002 (ip), vehicle: Klucel (hydroxypropylcellulose) (HPC)
[14] = dose: 50.0 mg/kg/injection, schedule: Q01DX009 (ip), vehicle: saline with Tween-80
[15] = dose: 100.0 mg/kg/injection, schedule: Q01DX009 (ip), vehicle: saline with Tween-80
[16] = dose: 60.0 mg/kg/injection, schedule: Q01DX005 (ip), vehicle: saline with Tween-80
[17] = dose: 120.0 mg/kg/injection, schedule: Q01DX005 (ip), vehicle: saline with Tween-80
[18] = dose: 240.0 mg/kg/injection, schedule: Q01DX005 (ip), vehicle: saline with Tween-80

Measured: T/C

O=C(O)CC1C(=O)OC2C3COC(=O)c4cc(O)c(O)c(O)c4-c4c(cc(O)c(O)c4O)C(=O)OC2C(OC(=O)c2cc(O)c(O)c4c2C1C(O)C(=O)O4)C(OC(=O)c1cc(O)c(O)c(O)c1)O3 (stereo unspecified)
inactive: dose: 0.78 mg/kg/injection, schedule: Q01DX009 (ip), vehicle: saline 99 % of control | dose: 1.56 mg/kg/injection, schedule: Q01DX009 (ip), vehicle: saline 102 % of control | dose: 3.12 mg/kg/injection, schedule: Q01DX009 (ip), vehicle: saline 98 % of control | dose: 6.25 mg/kg/injection, schedule: Q01DX009 (ip), vehicle: saline 100 % of control and 121 % of control | [1] 111 % of control and 93 % of control | [2] 107 % of control and 97 % of control | [3] 116 % of control and 97 % of control

CCc1nc(-c2ccccc2)nc2c1nc(-c1cccc(C)c1)n2Nc1ccccc1
inactive: [4] 97 % of control | [5] 94 % of control | [6] 88 % of control

Oc1ccccc1C=Nc1ccc2nc(SCc3ccccc3)sc2c1
inactive: [7] 109 % of control | [8] 100 % of control | [9] 89 % of control

COc1ccc(C(=O)C(C)Sc2ccccc2)cc1OC (stereo unspecified)
inactive: dose: 10.0 mg/kg/injection, schedule: Q01DX005 (ip), vehicle: Klucel (hydroxypropylcellulose) (HPC) 108 % of control | dose: 20.0 mg/kg/injection, schedule: Q01DX005 (ip), vehicle: Klucel (hydroxypropylcellulose) (HPC) 105 % of control | dose: 40.0 mg/kg/injection, schedule: Q01DX005 (ip), vehicle: Klucel (hydroxypropylcellulose) (HPC) 101 % of control

CC(=O)OCC1OC(Oc2cccc(C=C(C(C)=O)C(C)=O)c2)C(OC(C)=O)C(OC(C)=O)C1OC(C)=O (stereo unspecified)
inactive: dose: 50.0 mg/kg/injection, schedule: Q01DX005 (ip), vehicle: Klucel (hydroxypropylcellulose) (HPC) 100 % of control | dose: 100.0 mg/kg/injection, schedule: Q01DX005 (ip), vehicle: Klucel (hydroxypropylcellulose) (HPC) 98 % of control | dose: 200.0 mg/kg/injection, schedule: Q01DX005 (ip), vehicle: Klucel (hydroxypropylcellulose) (HPC) 105 % of control

NC(=O)CCNC(=O)CCCNC(=O)CCC[c-]1[c-][c-][c-][c-]1.[Fe].[c-]1[c-][c-][cH-][c-]1
inactive: dose: 12.5 mg/kg/injection, schedule: Q01DX009 (ip), vehicle: distilled water + Tween-80 111 % of control and 119 % of control | dose: 25.0 mg/kg/injection, schedule: Q01DX009 (ip), vehicle: distilled water + Tween-80 115 % of control | dose: 100.0 mg/kg/injection, schedule: Q01DX009 (ip), vehicle: distilled water + Tween-80 123 % of control

C[C@@H]1C[C@@H]2c3cccc4c3c(cn4C)C[C@H]2N(C)C1
inactive: [10] 104 % of control | [11] 107 % of control | [12] 104 % of control

CCOC1CC(=O)C2(C)C3CCC4(C)C(C(C)C5CC(C)=C(C)C(=O)O5)CCC4C3CC3OC32C1O (stereo unspecified)
inactive: dose: 9.12 mg/kg/injection, schedule: Q01DX009 (ip), vehicle: saline + alcohol 101 % of control | dose: 18.25 mg/kg/injection, schedule: Q01DX009 (ip), vehicle: saline + alcohol 96 % of control | dose: 36.5 mg/kg/injection, schedule: Q01DX009 (ip), vehicle: saline + alcohol 100 % of control

CC1=CCC(C)C(C)(C)C1CC/C(C)=C/CCC1(C)C(CCCO)/C(=C(\C)C=O)CCC1(C)O (stereo unspecified)
active: dose: 4.5 mg/kg/injection, schedule: Q01DX005 (ip), vehicle: Klucel (hydroxypropylcellulose) (HPC) 152 % of control

CSC(C#N)(Cc1ccccc1)N1CCOCC1 (stereo unspecified)
inactive: dose: 100.0 mg/kg/injection, schedule: Q04DX003 (ip), vehicle: saline with Tween-80 107 % of control | dose: 200.0 mg/kg/injection, schedule: Q04DX003 (ip), vehicle: saline with Tween-80 103 % of control | dose: 400.0 mg/kg/injection, schedule: Q04DX003 (ip), vehicle: saline with Tween-80 103 % of control

CC1(C)CCC[C@](C)(O)C2CCC=CC21 (stereo partly specified)
inactive: [13] 106 % of control | dose: 200.0 mg/kg/injection, schedule: Q04DX002 (ip), vehicle: Klucel (hydroxypropylcellulose) (HPC) 104 % of control | dose: 400.0 mg/kg/injection, schedule: Q04DX002 (ip), vehicle: Klucel (hydroxypropylcellulose) (HPC) 114 % of control

C/C(=N\Nc1cccc2ccccc12)c1ccccn1
inactive: [10] 111 % of control | [11] 103 % of control | [12] 98 % of control

COc1cc(C(O)C(CO)Oc2c(OC)cc(C3OCC4C(c5cc(OC)c(O)c(OC)c5)OCC34)cc2OC)ccc1O (stereo unspecified)
inactive: dose: 5.0 mg/kg/injection, schedule: Q01DX005 (ip), vehicle: sodium bicarbonate 107 % of control | dose: 10.0 mg/kg/injection, schedule: Q01DX005 (ip), vehicle: sodium bicarbonate 109 % of control | dose: 20.0 mg/kg/injection, schedule: Q01DX005 (ip), vehicle: sodium bicarbonate 106 % of control | dose: 40.0 mg/kg/injection, schedule: Q01DX005 (ip), vehicle: sodium bicarbonate 100 % of control

NCCNC(c1ccccc1)C(O)c1ccccc1 (stereo unspecified)
inactive: dose: 50.0 mg/kg/injection, schedule: Q04DX002 (ip), vehicle: Klucel (hydroxypropylcellulose) (HPC) 102 % of control | [13] 100 % of control

COc1cc2cc[n+]3cc4c(ccc5ccccc54)cc3c2cc1OC
active: dose: 6.25 mg/kg/injection, schedule: Q04DX003 (ip), vehicle: distilled water + Tween-80 166 % of control | dose: 12.5 mg/kg/injection, schedule: Q04DX003 (ip), vehicle: distilled water + Tween-80 158 % of control | dose: 12.5 mg/kg/injection, schedule: Q04DX003 (ip), vehicle: water 152 % of control | dose: 25.0 mg/kg/injection, schedule: Q04DX003 (ip), vehicle: distilled water + Tween-80 177 % of control

CCOc1ccc(N2C(=O)C(=O)C(C(C)=O)C2=O)cc1 (stereo unspecified)
inactive: [7] 108 % of control | [8] 106 % of control | [9] 100 % of control

O=C(O)C(=O)O.O=C(O)C(=O)O.O=C(O)C(=O)O.[Co]
inactive: dose: 6.25 mg/kg/injection, schedule: Q04DX002 (ip), vehicle: saline 91 % of control | dose: 12.5 mg/kg/injection, schedule: Q04DX002 (ip), vehicle: saline 100 % of control | dose: 25.0 mg/kg/injection, schedule: Q04DX002 (ip), vehicle: saline 91 % of control

COc1ccc(/C=C2/C(=O)N(c3ccccc3)N=C2C)cc1OC
inactive: [4] 101 % of control | [5] 93 % of control | [6] 90 % of control

O=C(O)C(O)C1CCCCC1 (stereo unspecified)
inactive: [14] 104 % of control | [15] 92 % of control

CN1C2CCC1CC(OC(=O)CBr)C2 (stereo unspecified)
inactive: [1] 115 % of control | [2] 107 % of control | [3] 117 % of control and 120 % of control

Cn1cccc1/C=N/N1CC(=O)N(c2ccc(Cl)cc2)CC1=O
inactive: [10] 110 % of control | [11] 106 % of control | [12] 88 % of control

Cc1cc2c3c(cccc3c1)C(=O)c1ccccc1-2
inactive: [10] 102 % of control | [11] 102 % of control | [12] 93 % of control

NC(CC1C=CCCC1)C(=O)O (stereo unspecified)
inactive: [4] 98 % of control | [5] 98 % of control | [6] 95 % of control

CCCCOC(=O)/C=C(\Cl)C(=O)OCCCC
inactive: dose: 12.5 mg/kg/injection, schedule: Q01DX009 (ip), vehicle: saline with Tween-80 102 % of control and 106 % of control and 111 % of control | dose: 25.0 mg/kg/injection, schedule: Q01DX009 (ip), vehicle: saline with Tween-80 111 % of control and 114 % of control and 118 % of control | [15] 86 % of control

CCOc1ccc(Nc2ccc(/C(=C3\C=CC(=[N+](CC)Cc4cccc(S(=O)(=O)O)c4)C=C3C)c3ccc(N(CC)Cc4cccc(S(=O)(=O)O)c4)cc3C)cc2)cc1
inactive: [14] 98 % of control | [15] 97 % of control

CCOC(=O)C(C#N)C(=N)C1CC(C)(C)OC1=O (stereo unspecified)
inactive: [16] 100 % of control | [17] 103 % of control | [18] 94 % of control

Cc1ccccc1NP1(=O)OCCCN1Cc1ccc(Cl)c(Cl)c1 (stereo unspecified)
inactive: [10] 100 % of control | [11] 98 % of control | [12] 93 % of control

CCCCCCCCCc1cc(=O)n(-c2ccc(C(=O)OCC)cc2)n1C
inactive: [7] 104 % of control | [8] 90 % of control | [9] 93 % of control

CNc1nc(N)nc(N)c1N1CCN(c2ccc(C(=O)O)cc2)CC1
inactive: [4] 91 % of control | [5] 93 % of control | [6] 87 % of control

COc1cc([N+](=O)[O-])ccc1NC(=O)C(F)(F)F
inactive: [16] 100 % of control | [17] 104 % of control | [18] 101 % of control

CC(C)c1nccn1Cc1ccc(Cl)cc1Cl
inactive: [16] 88 % of control | [17] 99 % of control

NC(N)=NCCCC1NC(=O)C(Cc2ccc(O)cc2)NC1=O (stereo unspecified)
inactive: [10] 98 % of control and 93 % of control | [11] 100 % of control | [12] 100 % of control and 101 % of control
